Activity calls are given as the source filed them. The calls are words filed in the database; no cut-off is given here.
How the values were obtained:
MDA-MB-436 = test: Antiproliferative activity against human MDA-MB-436 cells assessed as cell growth inhibition incubated for 5 days by MTT assay; type: functional, cell-based; details: MDA-MB-436, 120 h
CAPAN-1 = test: Antiproliferative activity against human CAPAN-1 cells assessed as cell growth inhibition incubated for 5 days by MTT assay; type: functional, cell-based; details: CAPAN-1, 120 h
MDA-MB-468 = test: Antiproliferative activity against human MDA-MB-468 cells assessed as cell growth inhibition incubated for 5 days by MTT assay; type: functional, cell-based; details: MDA-MB-468, 120 h
MDA-MB-231 = test: Antiproliferative activity against human MDA-MB-231 cells assessed as cell growth inhibition incubated for 5 days by MTT assay; type: functional, cell-based; details: MDA-MB-231, 120 h
[1] = target: T1, Protein cereblon/Poly [ADP-ribose] polymerase 1 (Homo sapiens, UniProt P09874+Q96SW2); test: PROTAC activity at CRBN/PARP1 in human MDA-MB-231 cells assessed as induction of PARP1 degradation at 1 uM incubated for 24 hrs by western blot analysis; type: cell-based
Target sequence in this assay (P09874 2-1014 limits assumed): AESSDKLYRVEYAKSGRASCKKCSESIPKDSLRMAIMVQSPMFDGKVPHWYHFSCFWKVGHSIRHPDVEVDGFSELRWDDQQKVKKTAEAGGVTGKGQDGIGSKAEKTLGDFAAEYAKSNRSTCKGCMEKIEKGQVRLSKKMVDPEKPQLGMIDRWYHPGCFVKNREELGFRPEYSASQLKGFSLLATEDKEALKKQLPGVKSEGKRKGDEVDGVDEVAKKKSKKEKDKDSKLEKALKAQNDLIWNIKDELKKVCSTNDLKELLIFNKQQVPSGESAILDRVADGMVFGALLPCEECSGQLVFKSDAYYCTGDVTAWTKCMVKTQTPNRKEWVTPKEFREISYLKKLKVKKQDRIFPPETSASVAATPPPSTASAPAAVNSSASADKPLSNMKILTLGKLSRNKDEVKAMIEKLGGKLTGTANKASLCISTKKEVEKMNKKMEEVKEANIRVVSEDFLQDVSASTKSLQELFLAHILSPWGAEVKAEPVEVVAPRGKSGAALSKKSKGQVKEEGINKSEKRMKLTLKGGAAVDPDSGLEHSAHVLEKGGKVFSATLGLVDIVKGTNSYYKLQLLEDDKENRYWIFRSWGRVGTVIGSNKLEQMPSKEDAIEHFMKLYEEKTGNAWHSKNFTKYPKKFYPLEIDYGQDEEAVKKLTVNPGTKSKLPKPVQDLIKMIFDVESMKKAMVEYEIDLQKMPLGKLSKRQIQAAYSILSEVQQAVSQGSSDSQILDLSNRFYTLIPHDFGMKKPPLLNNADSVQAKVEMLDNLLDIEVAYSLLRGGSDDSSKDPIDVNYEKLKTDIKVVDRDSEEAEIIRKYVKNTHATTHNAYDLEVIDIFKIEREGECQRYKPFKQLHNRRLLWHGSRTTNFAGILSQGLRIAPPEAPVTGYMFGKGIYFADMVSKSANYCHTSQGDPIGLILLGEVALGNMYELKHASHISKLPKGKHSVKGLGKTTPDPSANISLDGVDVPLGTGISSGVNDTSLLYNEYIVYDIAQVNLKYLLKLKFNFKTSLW
Target sequence in this assay (Q96SW2 whole entry partner): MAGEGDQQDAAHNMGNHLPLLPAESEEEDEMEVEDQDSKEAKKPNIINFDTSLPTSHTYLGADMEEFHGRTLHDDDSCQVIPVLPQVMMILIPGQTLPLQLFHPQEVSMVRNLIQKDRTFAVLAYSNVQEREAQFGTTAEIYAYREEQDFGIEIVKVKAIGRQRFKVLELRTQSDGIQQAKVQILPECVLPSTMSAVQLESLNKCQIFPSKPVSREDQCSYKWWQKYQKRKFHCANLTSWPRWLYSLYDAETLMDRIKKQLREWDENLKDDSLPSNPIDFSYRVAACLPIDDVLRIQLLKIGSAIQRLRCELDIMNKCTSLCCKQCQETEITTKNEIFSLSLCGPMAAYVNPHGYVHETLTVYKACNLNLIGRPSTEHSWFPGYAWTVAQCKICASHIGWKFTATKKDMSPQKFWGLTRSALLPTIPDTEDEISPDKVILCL

[2] = target: T1, Protein cereblon/Poly [ADP-ribose] polymerase 1; test: PROTAC activity at CRBN/PARP1 in human L02 cells assessed as induction of PARP1 degradation incubated for 24 hrs by western blot analysis; type: cell-based
Target sequence in this assay (P09874 whole entry): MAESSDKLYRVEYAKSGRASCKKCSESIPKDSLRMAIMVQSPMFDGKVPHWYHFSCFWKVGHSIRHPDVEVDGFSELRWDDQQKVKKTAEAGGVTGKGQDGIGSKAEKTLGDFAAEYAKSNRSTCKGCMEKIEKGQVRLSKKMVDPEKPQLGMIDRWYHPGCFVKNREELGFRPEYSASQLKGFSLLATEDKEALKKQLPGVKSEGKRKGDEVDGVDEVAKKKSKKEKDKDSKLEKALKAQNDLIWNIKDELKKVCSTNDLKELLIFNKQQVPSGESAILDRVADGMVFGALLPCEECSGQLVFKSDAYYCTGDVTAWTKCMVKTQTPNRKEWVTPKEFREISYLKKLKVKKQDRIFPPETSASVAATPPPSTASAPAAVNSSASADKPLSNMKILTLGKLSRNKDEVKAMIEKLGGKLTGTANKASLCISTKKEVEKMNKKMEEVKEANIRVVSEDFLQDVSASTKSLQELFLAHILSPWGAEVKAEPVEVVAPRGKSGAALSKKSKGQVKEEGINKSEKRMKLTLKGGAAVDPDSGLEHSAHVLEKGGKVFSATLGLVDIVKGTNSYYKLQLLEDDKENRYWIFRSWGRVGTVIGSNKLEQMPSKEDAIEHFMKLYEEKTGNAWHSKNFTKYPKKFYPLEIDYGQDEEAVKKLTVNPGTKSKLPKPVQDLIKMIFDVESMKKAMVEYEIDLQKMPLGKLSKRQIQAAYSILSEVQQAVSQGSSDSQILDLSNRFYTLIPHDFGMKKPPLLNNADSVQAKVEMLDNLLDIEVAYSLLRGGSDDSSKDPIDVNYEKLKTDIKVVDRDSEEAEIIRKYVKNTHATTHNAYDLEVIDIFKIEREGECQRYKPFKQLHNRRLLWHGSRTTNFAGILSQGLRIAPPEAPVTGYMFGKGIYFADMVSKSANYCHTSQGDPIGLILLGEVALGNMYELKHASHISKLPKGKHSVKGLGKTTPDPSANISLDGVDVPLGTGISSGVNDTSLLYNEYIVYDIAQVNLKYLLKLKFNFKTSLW
Target sequence in this assay (Q96SW2 whole entry): as the sequence (Q96SW2 whole entry partner) above

Structure (SMILES)	IC50 (MDA-MB-436) [µM]	IC50 (MDA-MB-468) [µM]	IC50 (MDA-MB-231) [µM]	Activity [1]	DC50 [2] [µM]	IC50 (CAPAN-1) [µM]
O=C1CCC(N2C(=O)c3cccc(NC(=O)CNCCCCC(=O)N4CCN(C(=O)c5cc(Cc6n[nH]c(=O)c7ccccc67)ccc5F)CC4)c3C2=O)C(=O)N1 (configuration not stated)	5.82	> 20	> 20	–	–	6.53
O=C1CCC(N2C(=O)c3cccc(NC(=O)CNCCC(=O)N4CCN(C(=O)c5cc(Cc6n[nH]c(=O)c7ccccc67)ccc5F)CC4)c3C2=O)C(=O)N1 (configuration not stated)	> 10	> 20	> 20	–	–	> 10
O=C(CCCCCCCCCCC(=O)N1CCN(C(=O)c2cc(Cc3n[nH]c(=O)c4ccccc34)ccc2F)CC1)NCCNc1cccc2c1C(=O)N(C1CCC(=O)NC1=O)C2=O (configuration not stated)	–	–	–	–	0.00289	–

The remaining molecules from weak to strong by IC50 (MDA-MB-436), led by results:

IC50 (MDA-MB-436) [µM]	IC50 (MDA-MB-468) [µM]	IC50 (MDA-MB-231) [µM]	Activity [1]	DC50 [2] [µM]	Structure (SMILES)	IC50 (CAPAN-1) [µM]
6.8	> 20	> 20	–	–	O=C1CCC(N2C(=O)c3cccc(NC(=O)CNCCCC(=O)N4CCN(C(=O)c5cc(Cc6n[nH]c(=O)c7ccccc67)ccc5F)CC4)c3C2=O)C(=O)N1 (configuration not stated)	8.64
4.28	> 20	> 20	–	–	O=C1CCC(N2C(=O)c3cccc(NC(=O)CNCCCCCC(=O)N4CCN(C(=O)c5cc(Cc6n[nH]c(=O)c7ccccc67)ccc5F)CC4)c3C2=O)C(=O)N1 (configuration not stated)	4.95
0.29	7.75	10.6	Active	–	O=C1CCC(N2C(=O)c3cccc(NC(=O)CNCCCCCCCC(=O)N4CCN(C(=O)c5cc(Cc6n[nH]c(=O)c7ccccc67)ccc5F)CC4)c3C2=O)C(=O)N1 (configuration not stated)	0.65
0.21	6.08	7.54	Active	–	O=C1CCC(N2C(=O)c3cccc(NC(=O)CNCCCCCCCCC(=O)N4CCN(C(=O)c5cc(Cc6n[nH]c(=O)c7ccccc67)ccc5F)CC4)c3C2=O)C(=O)N1 (configuration not stated)	0.59
